# Test results published in patent US10632106B2, “Methods of cancer treatment with 2-(1′H-Indole-3′-carbonyl)-thiazole-4-carboxylic acid methyl ester” (Ariagen, Inc., priority 2009, dated 2020).
# Tested on: human prostate cancer cell line LNCaP xenografts
# Assay: LNCaP xenograft growth inhibition in nude mice
# Type: in vivo
# Details: for TGI (Tumor Growth Inhibition): TGI=ΔT/ΔC×100%
# Method: All the procedures related to animal handling, care, and the treatment in the study were performed following guidelines approved by an Institutional Animal Care and Use Committee (IACUC) of Crown Bioscience, Inc. (Santa Clara, Calif., USA, a contract research organization we hired) based on the guidance of the Association for Assessment and Accreditation of Laboratory Animal Care (AAALAC). Animals were checked for any effects of tumor growth and drug treatment on normal behavior such as mobility, food and water consumption, body weight gain/loss (gross body weights were measured twice weekly), eye/hair matting, and any other abnormal effect. Death and observed clinical signs were recorded on the basis of the number of animals within each group. Individual animals with a tumor volume exceeding 3,000 mm^3 or animals of a group with a mean tumor volume exceeding 2,000 mm^3 were euthanized. In addition, animals showing signs of severe distress and/or pain, dropping body weight more than 20% from that at the start of treatment, or losing the capability of accessing adequate food or water were humanely sacrificed.
# The human prostate cancer cell line LNCaP (ATCC, American Type Culture Collection, Manassas, Va., USA) were maintained in vitro as monolayer culture in RPMI-1640 medium supplemented with 10% fetal bovine serum (FBS), 100 U/ml penicillin, 100 μg/ml streptomycin, and 2 mM L-glutamine at 37° C. in an atmosphere of 5% CO2 in air. The tumor cells were routinely subcultured twice a week. The cells growing in an exponential phase were harvested and counted for tumor inoculation.
# Each mouse was inoculated subcutaneously at the right flank with the LNCaP cells (1×10^7) in 0.1 ml of PBS for tumor development. When a mean tumor volume reached around 150 mm^3, the tumor-bearing mice were divided into homogeneous blocks based on their tumor volumes followed by a randomization of mice in each block into treatment groups (thus minimizing variations in tumor response to treatments due to the differential in initial mean tumor volumes). Each treatment group was consisted of 8 tumor-bearing mice. Vehicle (DMSO) or ITE in the vehicle at specified doses were administered to the mice by either i.p. (intraperitoneal) or p.o. (oral) injection once or twice daily for 28 continuous days as indicated.
# Tumor volume was measured twice weekly in two dimensions using a caliper and the volume was calculated with a formula of: V=0.5 a×b^2, where a and b are the long and short diameter (in mm) of a tumor, respectively. The tumor volume was then used for calculations of both TGI (Tumor Growth Inhibition) and TGD (Tumor Growth Delay). The TGI was determined by: TGI=ΔT/ΔC×100%, where ΔT was a difference between the mean tumor volume at a specified day of observation and that at the day treatment starts (day 1) for a drug treated group whereas ΔC was the same difference measured for the control group. The TGD was calculated as: TGD=T−C, where T was the time (in days) required for tumors in a drug treated group to reach a predetermined mean tumor volume and C the time (in days) in the control group to reach the same volume. A tumor weight was derived by equating 1,000 mm^3 in volume to 1,000 mg in weight. A net body weight was then derived by subtracting a tumor weight from a corresponding gross body weight with the tumor.
# Summary statistics, including mean and the standard error of the mean (SEM), are provided for the tumor volume of each group at each time point. Statistical analysis of difference in tumor volume among groups was conducted on a data set either at the best therapeutic time point or at the final dosing day as indicated. The tumor volume data were log-transformed and evaluated using a one-way ANOVA followed by Tukey's test when significance was observed. All data were analyzed using SPSS 16.0 and p<0.05 was considered to be statistically significant.
smiles,measurement,setting,value
"COC(=O)c1csc(C(=O)c2c[nH]c3ccccc23)n1 [ITE, 2-(1′H-indole-3′-carbonyl)-thiazole-4-carboxylic acid methyl ester]",TGD (Tumor Growth Delay),"20 mg/kg b.w. i.p. once daily, at a tumor volume of 1,000 mm^3",8 days
same,TGI (Tumor Growth Inhibition),"20 mg/kg b.w. i.p. once daily, day 28",64%
same,toxic response judged from body weight changes of tumor-bearing mice,0.1-40 mg/kg b.w. i.p. every 12 hr for 28 days,did not seem to provoke significant toxic response
same,TGI (Tumor Growth Inhibition),"ITE 0.1 mg/kg b.w. i.p. every 12 hr for 28 days, DMSO, day 28",74%
same,TGI (Tumor Growth Inhibition),"ITE 1 mg/kg b.w. i.p. every 12 hr for 28 days, day 28",52%
same,TGD (Tumor Growth Delay),"ITE 1 mg/kg b.w. i.p. every 12 hr, at a tumor size of 600 mm^3",3 days
same,TGI (Tumor Growth Inhibition),"ITE 10 mg/kg b.w. i.p. every 12 hr for 28 days, day 28",31%
same,TGD (Tumor Growth Delay),"ITE 10 mg/kg b.w. i.p. every 12 hr, at a tumor size of 600 mm^3",10 days
same,TGI (Tumor Growth Inhibition),"ITE 20 mg/kg b.w. i.p. every 12 hr for 28 days, day 28",26%
same,TGD (Tumor Growth Delay),"ITE 20 mg/kg b.w. i.p. every 12 hr, at a tumor size of 600 mm^3",12 days
same,TGI (Tumor Growth Inhibition),"ITE 40 mg/kg b.w. i.p. every 12 hr for 28 days, day 28",22%
same,TGD (Tumor Growth Delay),"ITE 40 mg/kg b.w. i.p. every 12 hr, at a tumor size of 600 mm^3",16 days
same,TGI (Tumor Growth Inhibition),"ITE 80 mg/kg p.o. daily, day 24",46%
same,TGI (Tumor Growth Inhibition),"ITE 80 mg/kg twice daily i.p., day 28",12%
same,TGI (Tumor Growth Inhibition),"ITE 80 mg/kg twice daily i.p., the last day",16%
